From PubChem BioAssay (NCI)
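How tested: cells in 96-well plates exposed to compound for 48 hours at five concentrations. TGI: total growth inhibition.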

Assays:
Assay in all cases: NCI tumour cell line growth inhibition, 48 h
[1] = test system: NCI-H226 lung
[2] = test system: NCI-H23 lung
[3] = test system: COLO 205 colon
[4] = test system: UO-31 renal
[5] = test system: HT29 colon
[6] = test system: CCRF-CEM leukemia
[7] = test system: HOP-62 NSCLC
[8] = test system: HCT-116 colon
[9] = test system: MDA-MB-231 breast
[10] = test system: HOP-92 NSCLC

Row | Structure (SMILES) | TGI [1] | TGI [2] | TGI [3] | TGI [4] | TGI [5] | TGI [6] | TGI [7] | TGI [8] | TGI [9] | TGI [10]
1 | Cc1ccc([N+](=O)[O-])cc1NC1=NCCO1 | > 100 µM | > 100 µM | > 100 µM | > 100 µM | > 100 µM | > 100 µM | > 100 µM | > 100 µM | > 100 µM | 
2 | C[C@@H]1CC[C@]2(C(=O)O)CC[C@]3(C)C(=CC[C@@H]4[C@@]5(C)CC[C@H](O)C(C)(C)[C@@H]5CC[C@]43C)[C@@H]2[C@]1(C)O |  | 35.9 µM | 30 µM | 23.5 µM |  | 23.2 µM |  | 24.6 µM | 22.6 µM | 20.7 µM
3 | CC(=O)NC(Cc1ccc(O)cc1)C(=O)O (stereo not given) | > 100 µM | > 100 µM | > 100 µM | > 100 µM | > 100 µM |  | > 100 µM | > 100 µM | > 100 µM | > 100 µM
4 | C1CN(c2nc3c(nnc4nc(N5CCOCC5)sc43)s2)CCO1 | > 100 µM | > 100 µM | > 100 µM | > 100 µM | > 100 µM | > 100 µM | > 100 µM | > 100 µM | > 100 µM | > 100 µM
5 | CCOC(=O)C(SCCO)C(C(=O)OCC)n1cnc2c(=O)[nH]c(NC(C)=O)nc21 (stereo not given) | > 100 µM | > 100 µM | > 100 µM | > 100 µM | > 100 µM | > 100 µM | > 100 µM | > 100 µM | > 100 µM | > 100 µM
6 | N#CC1(C#N)N[C@@H](c2ccsc2)[C@H]2C(=O)N(c3ccccc3)C(=O)[C@H]21 | > 100 µM | > 100 µM | > 100 µM | > 100 µM | > 100 µM |  | > 100 µM | > 100 µM | > 100 µM | > 100 µM
7 | COc1cc(Br)cc2cc(-c3cn4ccsc4n3)c(=O)oc12 |  | > 100 µM | > 100 µM | > 100 µM | > 100 µM | > 100 µM | > 100 µM | > 100 µM | 80.9 µM | 71.9 µM
8 | c1ccc(N=c2sc3ccccc3nc2Nc2ccccc2)cc1 | > 100 µM | > 100 µM | > 100 µM | > 100 µM | > 100 µM | > 100 µM | > 100 µM | > 100 µM | > 100 µM | > 100 µM
9 | Cc1cn2c(/C=N/N=C(N)N)c(-c3cccc([N+](=O)[O-])c3)nc2s1 |  | 5.11 µM |  | 19.6 µM | 1.86 µM | > 100 µM |  | > 100 µM | 2.71 µM | 3.35 µM
10 | Nn1c(-c2ccccc2)nn(C(=O)c2ccccc2)c1=O | > 100 µM | > 100 µM | > 100 µM | > 100 µM | > 100 µM | > 100 µM | > 100 µM | > 100 µM | > 100 µM | > 100 µM
11 | C[C@@H](NC(=O)[C@@H]1C[C@]1(C)COC(=O)c1cc([N+](=O)[O-])cc([N+](=O)[O-])c1)c1cccc2ccccc12 | > 100 µM | > 100 µM | > 100 µM | > 100 µM | > 100 µM | > 100 µM | > 100 µM | > 100 µM | > 100 µM | > 100 µM
